What was measured:
SkBr-3 cells = assay: Real-time PCR Apoptosis Array; format: cell-based, human
Procedure: Changes in mRNA levels were evaluated using real-time PCR quantification to assess mRNA levels in pre-selected subsets containing […] pathway specific targets.
For the interpretation of mRNA results, the genes that were altered in their mRNA transcription by a two-fold level were identified and evaluated. The level of gene transcription to produce mRNA only provides a rough estimate of potential changes in the level of the expressed protein. The skilled artisan will appreciate that each mRNA may have different rates at which it is degraded or its translation inefficiently, thus resulting in differing amounts of protein.
The assay method of RT-PCR was utilized to provide a measure of mRNA level changes to a total of 84 apoptotic pathway related proteins.

[1] = tested on: Lactate Dehydrogenase (LDH); assay: Western blot, Lactate Dehydrogenase levels; format: cell-based, human
Procedure: The samples were processed and run on a 4-12% Bis-Tris Novex NuPAGE gel as described above. The gels were run, transferred and stained essentially as described above.
After transfer each blot was dried for 15-20 minutes, activated with methanol for 5 seconds, washed with water for 5 minutes, and TBST for 15 minutes. The blots were blocked for 1 hour with 5% blocking reagent in TBS-T at room temperature and then washed 3 times with TBS-T (1×-15′; 2×5′ each) and probed with the primary antibody for Lactate Dehydrogenase (abcam ab2101; polyclonal) in 5% BSA (at 1:1000 dilutions) by incubation overnight at 4 deg C. with shaking. After the overnight incubation with primary antibody for Lactate Dehydrogenase, the blots were washed 3 times with TBS-T (1×-15′; 2×5′ each) and probed with the secondary antibody (rabbit antigoat; 1:10,000 dilution) for 1 h at room temperature. After 1 h of incubation with secondary antibodies, the blots were washed 3 times with TBS-T (1×-15′; 2×5′ each) and then incubated with ECF reagent for 5 mins and then each blot scanned with 5100 Fuji Laser scanner at 25 uM resolution, 16 bit, green laser, at 400V and at 500 V.
The PACA2 samples were processed and the gels were run, transferred, stained and scanned essentially as described above.
The levels of LDH and PDH were determined by probing the blots successively with primary antibodies for LDH and PDH, essentially as described above.
The above blots were stripped by incubating for 30 minutes with methanol, followed by two 10 minute washes with TBS-T, then 30 minutes of incubation with Stripping buffer at 50 deg C., and followed by two washes with 100 ml or more of TBS-T for 30′ each. The blots were scanned in laser scanner to check for complete stripping. The blots were activated with methanol for 5 seconds, washed with water for 5 minutes, and TBST for 15 minutes. The blots were blocked for 1 hour with 5% blocking reagent in TBS-T at room temperature and then washed 3 times with TBS-T (1×-15′; 2×5′ each) and probed with the primary antibody for LDH or Bik in 5% BSA in TBS-T by incubation overnight at 4 deg C. with gentle shaking. The primary antibody for LDH was from Abcam ab2101; antigoat; at 1:1000 dilution. The primary antibody for Bik was from Cell Signaling #9942; antirabbit; at 1:1000 dilution. After incubation with primary antibodies, the membranes were washed 3 times with TBS-T (1×-15′; 2×5′ each) and probed with the secondary antibody (LDH antigoat; Jackson Laboratories) and Bik antirabbit; 1:10,000 dilution) for 1 h on the orbital tilting shaker at room temperature. After 1 h of incubation, the blots were washed 3 times with TBS-T (1×-15′; 2×5′ each) and incubated with ECF reagent for 5 minutes and then each blot scanned with 5100 Fuji Laser scanner at 25 uM resolution, 16 bit, green laser, at 400V and at 500 V.
The above blots were stripped by incubating for 30 minutes with methanol, followed by two 10 minute washes with TBS-T, then 30 minutes of incubation with stripping buffer at 50 deg C., and followed by two washes with 100 ml or more of TBS-T for 30′ each. The blots were activated with methanol for 5 seconds, washed with water for 5 minutes, and TBST for 15 minutes. The blots ere blocked for 1 hour with 5% blocking reagent in TBS-T at room temperature and then washed 3 times with TBS-T (1×-15′; 2×5′ each) and probed with the primary antibody for LDH in 5% BSA or 5% milk by incubation overnight at 4 deg C. with gentle shaking. The primary antibody for LDH 080309b1 (Abcam ab2101; antigoat) was at 1:1000 dilution in 5% BSA. The primary antibody for LDH 080309b2 (Abcam ab2101; antigoat) was at 1:1000 dilution in 5% milk. After incubation with primary antibodies, the membranes were washed 3 times with TBS-T (1×-15′; 2×5′ each) and probed with the secondary antibody (Jackson Immuno Research antigoat; 1:10,000 dilution; 305-055-045) for 1 h. […]

COC1=C(OC)C(=O)C(C/C=C(\C)CC/C=C(\C)CC/C=C(\C)CC/C=C(\C)CC/C=C(\C)CC/C=C(\C)CC/C=C(\C)CC/C=C(\C)CC/C=C(\C)CCC=C(C)C)=C(C)C1=O [Q10, Coenzyme Q10]
mRNA's being affected (Apoptosis array) (SkBr-3 cells; Q10 (24 hr)): Bcl2, Bcl2L1, Bcl2L11, Birc6, Bax, Xiap, Hprt1, Apaf1, Ab11, Braf | Bcl-xl mRNA level (SkBr-3 cells; one of the highest): significant up-regulation | Lactate Dehydrogenase Average Volume as a % ([1]; HepG2, 5g24-50, 2 Experiments): 64% | Lactate Dehydrogenase Average Volume as a % ([1]; HepG2, 5g24-100, 2 Experiments): 106% | Lactate Dehydrogenase Average Volume as a % ([1]; HepG2, 5g48-50, 2 Experiments): 112% | Lactate Dehydrogenase Average Volume as a % ([1]; HepG2, 5g48-100, 2 Experiments): 121% | Lactate Dehydrogenase Normalized Volume ([1]; HepG2, 5g-50, 24 h): 7900 | Lactate Dehydrogenase Normalized Volume ([1]; HepG2, 5g-50, 48 h): 5188 | Lactate Dehydrogenase Normalized Volume ([1]; HepG2, 5g-100, 24 h): 6616 | Lactate Dehydrogenase Normalized Volume ([1]; HepG2, 5g-100, 48 h): 7319 | Lactate Dehydrogenase Average Volume as a % ([1]; HepG2, 22G24-50, 2 Experiments): 121% | Lactate Dehydrogenase Average Volume as a % ([1]; HepG2, 22G24-100, 2 Experiments): 144% | Lactate Dehydrogenase Average Volume as a % ([1]; HepG2, 22G48-50, 2 Experiments): 95% | Lactate Dehydrogenase Average Volume as a % ([1]; HepG2, 22G48-100, 2 Experiments): 67% | Lactate Dehydrogenase Normalized Volume ([1]; HepG2, 22G-50, 24 h): 7550 | Lactate Dehydrogenase Normalized Volume ([1]; HepG2, 22G-50, 48 h): 6173 | Lactate Dehydrogenase Normalized Volume ([1]; HepG2, 22G-100, 24 h): 7124 | Lactate Dehydrogenase Normalized Volume ([1]; HepG2, 22G-100, 48 h): 9141 | Lactate Dehydrogenase Normalized Volume ([1]; PACA2, 5g-50, 24 h): 5068 | Lactate Dehydrogenase Normalized Volume ([1]; PACA2, 5g-50, 48 h): 2978 | Lactate Dehydrogenase Normalized Volume ([1]; PACA2, 5g-100, 24 h): 3675 | Lactate Dehydrogenase Normalized Volume ([1]; PACA2, 5g-100, 48 h): 2396 | Lactate Dehydrogenase Normalized Volume ([1]; PACA2, 22G-50, 24 h): 10218 | Lactate Dehydrogenase Normalized Volume ([1]; PACA2, 22G-50, 48 h): 2575 | Lactate Dehydrogenase Normalized Volume ([1]; PACA2, 22G-100, 24 h): 7158 | Lactate Dehydrogenase Normalized Volume ([1]; PACA2, 22G-100, 48 h): 3557 | Lactate Dehydrogenase (LDH) expression ([1]; cancer): reduced | Lactate Dehydrogenase (LDH) expression ([1]; normal cells): minimal effect

Reference: patent publication US20110020312A1, “METHODS FOR TREATMENT OF METABOLIC DISORDERS USING EPIMETABOLIC SHIFTERS, MULTIDIMENSIONAL INTRACELLULAR MOLECULES, OR ENVIRONMENTAL INFLUENCERS” (priority 2009, published 2011)
